Series [1] addresses T1, NADP-dependent secondary alcohol dehydrogenase (ADH-1) (Trichomonas vaginalis, UniProt A2DJ40).
T1 sequence (A2DJ40 1-365): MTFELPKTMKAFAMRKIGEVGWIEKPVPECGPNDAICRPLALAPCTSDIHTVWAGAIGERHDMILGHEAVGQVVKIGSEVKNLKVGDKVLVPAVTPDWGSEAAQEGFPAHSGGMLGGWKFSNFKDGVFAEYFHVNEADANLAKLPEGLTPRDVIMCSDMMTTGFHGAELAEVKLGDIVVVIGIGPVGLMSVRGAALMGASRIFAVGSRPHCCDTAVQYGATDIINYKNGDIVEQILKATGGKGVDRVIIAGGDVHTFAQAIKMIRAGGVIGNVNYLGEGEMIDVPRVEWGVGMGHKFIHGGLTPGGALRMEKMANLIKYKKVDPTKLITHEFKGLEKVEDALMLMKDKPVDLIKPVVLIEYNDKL
Briefly: NADPH oxidation at […] nm, acetaldehyde reduction. Format: biochemical.

The target in series [2] is T2, NADP-dependent secondary alcohol dehydrogenase (E. histolytica homologue of ADH-1) (Entamoeba histolytica, UniProt P35630).
T2 sequence (P35630 1-366): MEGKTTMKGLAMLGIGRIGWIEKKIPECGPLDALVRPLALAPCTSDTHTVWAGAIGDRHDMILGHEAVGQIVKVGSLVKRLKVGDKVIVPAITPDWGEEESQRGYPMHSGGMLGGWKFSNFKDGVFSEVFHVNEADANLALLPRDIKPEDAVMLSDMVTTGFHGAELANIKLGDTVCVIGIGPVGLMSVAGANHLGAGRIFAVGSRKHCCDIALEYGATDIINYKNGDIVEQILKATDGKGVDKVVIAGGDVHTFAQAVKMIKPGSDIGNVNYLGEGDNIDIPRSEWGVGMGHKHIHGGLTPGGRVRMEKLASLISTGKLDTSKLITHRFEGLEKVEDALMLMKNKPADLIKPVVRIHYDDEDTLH
Briefly: NADPH oxidation at […] nm in cell extract, acetaldehyde reduction. Type of series: biochemical.

Substrate in series [3]: NC(=O)c1ccc[n+]([C@@H]2O[C@H](COP(=O)(O)OP(=O)(O)OC[C@H]3O[C@@H](n4cnc5c(N)ncnc54)[C@H](OP(=O)(O)O)[C@@H]3O)[C@@H](O)[C@H]2O)c1
In words: purified protein. The note with it: 100 mM 2-propanol, pH 6.75, 37 °C, varied: cofactor.

Substrate in series [4]: CC(C)O
In words: purified protein. The note with it: 1 mM NADP+, pH 6.75, 37 °C.

Usually IC50 stands for the concentration that gives 50% inhibition. Read a high IC50 as lower potency. In general, inhibition refers to the relative decrease from the control value, in per cent. One may read the Km as the substrate concentration at which the rate is half of its maximum.

Take `CC(C)O` [2-propanol]: the IC50 in series [1] came out at 96 ± 11 mM. In series [2] (read-out: Inhibition 2-propanol ^b aldehyde reduction), the inhibition at 200000 µM is 80 ± 11%.

The molecule `CC(C)(COP(=O)(O)OP(=O)(O)OC[C@H]1O[C@@H](n2cnc3c(N)ncnc32)[C@H](O)[C@@H]1OP(=O)(O)O)[C@@H](O)C(=O)NCCC(=O)NCCS` [coenzyme A] showed an IC50 in series [1] of 0.063 ± 0.017 mM. The inhibition at 100 µM in series [2] (read-out: Inhibition CoA ^c aldehyde reduction) came to 62 ± 22%.

B1: NADP-dependent secondary alcohol dehydrogenase (ADH-1) (Trichomonas vaginalis G3) (protein)
chain: MTFELPKTMKAFAMRKIGEVGWIEKPVPECGPNDAICRPLALAPCTSDIHTVWAGAIGERHDMILGHEAVGQVVKIGSEVKNLKVGDKVLVPAVTPDWGSEAAQEGFPAHSGGMLGGWKFSNFKDGVFAEYFHVNEADANLAKLPEGLTPRDVIMCSDMMTTGFHGAELAEVKLGDIVVVIGIGPVGLMSVRGAALMGASRIFAVGSRPHCCDTAVQYGATDIINYKNGDIVEQILKATGGKGVDRVIIAGGDVHTFAQAIKMIRAGGVIGNVNYLGEGEMIDVPRVEWGVGMGHKFIHGGLTPGGALRMEKMANLIKYKKVDPTKLITHEFKGLEKVEDALMLMKDKPVDLIKPVVLIEYNDKL
Consider B1, for which the Km was 0.0412 ± 0.0044 mM in series [3] and 11.57 ± 1.25 mM in series [4].
